Test results published in publication PMC5858560 (Toxicology and applied pharmacology, 2011).

Tests used:
AMPK-alpha1 = AMPK-alpha1 (Homo sapiens, UniProt Q13131); assay: KINOMEscan; assay type: binding; conditions: read-out: % Inhibition AMBIT, AMP_K-alpha1
AMPK-alpha2 = AMPK-alpha2 (Homo sapiens, UniProt P54646); assay: KINOMEscan; assay type: binding; conditions: read-out: % Inhibition AMBIT, AMPK-alpha2
AURORA B KINASE = AURORA B KINASE (Homo sapiens, UniProt Q96GD4); assay: KINOMEscan; assay type: binding; conditions: read-out: % Inhibition AMBIT, AURORA B KINASE
AURORA C KINASE = AURORA C KINASE (Homo sapiens, UniProt Q9UQB9); assay: KINOMEscan; assay type: binding; conditions: read-out: % Inhibition AMBIT, AURORA C KINASE
CDK7 = CDK7 (Homo sapiens, UniProt P50613); assay: KINOMEscan; assay type: binding; conditions: read-out: % Inhibition AMBIT, CDK7
PDGFR-alpha = PDGFR-alpha (Homo sapiens, UniProt P16234); assay: KINOMEscan; assay type: binding; conditions: read-out: % Inhibition AMBIT, PDGFR-alpha
PDGFR-beta = PDGFR-beta (Homo sapiens, UniProt P09619); assay: KINOMEscan; assay type: binding; conditions: read-out: % Inhibition AMBIT, PDGFR-beta
Chain of PDGFR-beta (P09619 33-1106): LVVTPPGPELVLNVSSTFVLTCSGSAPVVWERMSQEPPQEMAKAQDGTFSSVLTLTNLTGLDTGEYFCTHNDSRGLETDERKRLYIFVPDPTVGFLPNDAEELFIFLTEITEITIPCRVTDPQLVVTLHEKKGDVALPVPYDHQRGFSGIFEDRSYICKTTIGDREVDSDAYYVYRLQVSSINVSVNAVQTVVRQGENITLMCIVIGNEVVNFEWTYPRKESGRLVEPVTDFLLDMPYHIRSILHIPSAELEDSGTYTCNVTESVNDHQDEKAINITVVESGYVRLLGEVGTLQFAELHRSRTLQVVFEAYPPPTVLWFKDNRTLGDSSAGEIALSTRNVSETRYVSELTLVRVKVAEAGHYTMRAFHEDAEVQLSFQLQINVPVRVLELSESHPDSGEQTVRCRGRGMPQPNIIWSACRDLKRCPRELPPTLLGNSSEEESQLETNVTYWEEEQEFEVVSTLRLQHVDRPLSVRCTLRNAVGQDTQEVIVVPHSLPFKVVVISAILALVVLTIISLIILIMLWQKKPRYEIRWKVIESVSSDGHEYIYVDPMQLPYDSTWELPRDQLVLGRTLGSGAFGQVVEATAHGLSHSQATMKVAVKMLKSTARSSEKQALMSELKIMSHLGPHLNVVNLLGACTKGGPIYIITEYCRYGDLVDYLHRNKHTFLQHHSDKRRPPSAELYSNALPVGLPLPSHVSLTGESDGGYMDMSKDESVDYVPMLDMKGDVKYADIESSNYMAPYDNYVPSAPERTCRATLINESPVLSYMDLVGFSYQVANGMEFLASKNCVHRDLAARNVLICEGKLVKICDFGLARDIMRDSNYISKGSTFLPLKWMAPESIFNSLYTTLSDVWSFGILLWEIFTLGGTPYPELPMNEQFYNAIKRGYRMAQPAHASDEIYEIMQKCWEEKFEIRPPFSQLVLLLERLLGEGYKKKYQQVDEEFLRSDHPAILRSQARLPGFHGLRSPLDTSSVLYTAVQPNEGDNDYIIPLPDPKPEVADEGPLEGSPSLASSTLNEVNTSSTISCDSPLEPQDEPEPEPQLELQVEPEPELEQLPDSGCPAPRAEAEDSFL

PLK4 = PLK4 (Homo sapiens, UniProt O00444); assay: KINOMEscan; assay type: binding; conditions: read-out: % Inhibition AMBIT, PLK4
Chain of PLK4 (O00444 whole entry): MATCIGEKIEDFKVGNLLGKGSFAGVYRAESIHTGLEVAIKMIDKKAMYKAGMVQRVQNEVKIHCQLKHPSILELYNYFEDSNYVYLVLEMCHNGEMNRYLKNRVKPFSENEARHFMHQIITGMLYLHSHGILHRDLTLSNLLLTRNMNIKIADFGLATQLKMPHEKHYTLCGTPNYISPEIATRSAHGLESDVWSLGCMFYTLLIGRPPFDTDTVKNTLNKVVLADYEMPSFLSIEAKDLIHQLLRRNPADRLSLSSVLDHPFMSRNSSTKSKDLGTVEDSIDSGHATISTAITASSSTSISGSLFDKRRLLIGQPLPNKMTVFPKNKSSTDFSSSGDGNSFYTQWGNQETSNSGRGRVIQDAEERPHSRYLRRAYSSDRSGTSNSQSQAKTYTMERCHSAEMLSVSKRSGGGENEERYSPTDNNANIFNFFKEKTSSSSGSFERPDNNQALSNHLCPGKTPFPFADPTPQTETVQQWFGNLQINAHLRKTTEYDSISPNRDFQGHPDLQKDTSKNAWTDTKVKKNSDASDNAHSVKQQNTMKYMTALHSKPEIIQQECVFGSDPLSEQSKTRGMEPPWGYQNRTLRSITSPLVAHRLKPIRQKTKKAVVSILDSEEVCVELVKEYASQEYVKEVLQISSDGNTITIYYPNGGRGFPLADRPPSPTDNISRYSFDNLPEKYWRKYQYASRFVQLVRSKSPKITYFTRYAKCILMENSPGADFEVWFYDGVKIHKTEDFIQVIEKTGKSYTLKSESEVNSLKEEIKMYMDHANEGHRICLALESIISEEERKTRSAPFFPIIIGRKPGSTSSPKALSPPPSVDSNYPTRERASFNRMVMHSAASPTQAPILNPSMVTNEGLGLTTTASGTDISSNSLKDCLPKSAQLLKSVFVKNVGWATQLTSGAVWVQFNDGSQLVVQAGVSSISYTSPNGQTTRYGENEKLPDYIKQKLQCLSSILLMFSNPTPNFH

FLT1 = FLT1 (Homo sapiens, UniProt P17948); assay: KINOMEscan; assay type: binding; conditions: read-out: % Inhibition AMBIT, FLT1
FLT4 = FLT4 (Homo sapiens, UniProt P35916); assay: KINOMEscan; assay type: binding; conditions: read-out: % Inhibition AMBIT, FLT4
STK11 = STK11 (Homo sapiens, UniProt Q15831); assay: KINOMEscan; assay type: binding; conditions: read-out: % Inhibition AMBIT, STK11
RPS6KA1 (Kin. Dom.1) = RPS6KA1 (Kin. Dom.1) (Homo sapiens, UniProt Q15418); assay: KINOMEscan; assay type: binding; conditions: read-out: % Inhibition AMBIT, RPS6KA1 (Kin. Dom.1)
Chain of RPS6KA1 (Kin. Dom.1) (Q15418 1-391 limits assumed): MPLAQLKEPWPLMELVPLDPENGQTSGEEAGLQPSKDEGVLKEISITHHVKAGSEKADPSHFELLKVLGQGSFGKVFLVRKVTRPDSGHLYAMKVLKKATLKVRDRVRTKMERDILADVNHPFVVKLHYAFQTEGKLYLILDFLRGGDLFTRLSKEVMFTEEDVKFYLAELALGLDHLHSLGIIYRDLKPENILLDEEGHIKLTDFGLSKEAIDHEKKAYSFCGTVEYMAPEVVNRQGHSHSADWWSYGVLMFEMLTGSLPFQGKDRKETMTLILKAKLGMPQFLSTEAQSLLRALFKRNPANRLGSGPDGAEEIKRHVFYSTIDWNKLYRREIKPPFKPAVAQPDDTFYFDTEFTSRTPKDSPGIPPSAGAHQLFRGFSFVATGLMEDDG

RPS6KA2 (Kin. Dom.1) = RPS6KA2 (Kin. Dom.1) (Homo sapiens, UniProt Q15349); assay: KINOMEscan; assay type: binding; conditions: read-out: % Inhibition AMBIT, RPS6KA2 (Kin. Dom.1)
RPS6KA4 (Kin. Dom.1) = RPS6KA4 (Kin. Dom.1) (Homo sapiens, UniProt O75676); assay: KINOMEscan; assay type: binding; conditions: read-out: % Inhibition AMBIT, RPS6KA4 (Kin. Dom.1)
Chain of RPS6KA4 (Kin. Dom.1) (O75676 1-371 limits assumed): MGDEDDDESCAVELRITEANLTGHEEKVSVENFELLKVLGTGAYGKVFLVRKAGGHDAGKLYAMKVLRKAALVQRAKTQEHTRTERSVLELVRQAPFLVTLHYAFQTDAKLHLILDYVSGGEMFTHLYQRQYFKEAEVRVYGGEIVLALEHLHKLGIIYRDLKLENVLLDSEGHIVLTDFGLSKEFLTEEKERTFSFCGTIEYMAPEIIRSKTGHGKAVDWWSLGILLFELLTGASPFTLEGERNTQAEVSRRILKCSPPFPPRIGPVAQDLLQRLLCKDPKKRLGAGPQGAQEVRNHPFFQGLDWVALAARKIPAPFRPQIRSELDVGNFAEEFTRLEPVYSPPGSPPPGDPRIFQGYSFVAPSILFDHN

RPS6KA4 (Kin. Dom.2) = RPS6KA4 (Kin. Dom.2) (Homo sapiens, UniProt O75676); assay: KINOMEscan; assay type: binding; conditions: read-out: % Inhibition AMBIT, RPS6KA4 (Kin. Dom.2)
RPS6KA6 (Kin. Dom.1) = RPS6KA6 (Kin. Dom.1) (Homo sapiens, UniProt Q9UK32); assay: KINOMEscan; assay type: binding; conditions: read-out: % Inhibition AMBIT, RPS6KA6 (Kin. Dom.1)
ROCK2 = ROCK2 (Homo sapiens, UniProt O75116); assay: KINOMEscan; assay type: binding; conditions: read-out: % Inhibition AMBIT, ROCK2
AKT3 = AKT3 (Homo sapiens, UniProt Q9Y243); assay: KINOMEscan; assay type: binding; conditions: read-out: % Inhibition AMBIT, AKT3
AURORA A KINASE = AURORA A KINASE (Homo sapiens, UniProt O14965); assay: KINOMEscan; assay type: binding; conditions: read-out: % Inhibition AMBIT, AURORA A KINASE
Chain of AURORA A KINASE (O14965 whole entry): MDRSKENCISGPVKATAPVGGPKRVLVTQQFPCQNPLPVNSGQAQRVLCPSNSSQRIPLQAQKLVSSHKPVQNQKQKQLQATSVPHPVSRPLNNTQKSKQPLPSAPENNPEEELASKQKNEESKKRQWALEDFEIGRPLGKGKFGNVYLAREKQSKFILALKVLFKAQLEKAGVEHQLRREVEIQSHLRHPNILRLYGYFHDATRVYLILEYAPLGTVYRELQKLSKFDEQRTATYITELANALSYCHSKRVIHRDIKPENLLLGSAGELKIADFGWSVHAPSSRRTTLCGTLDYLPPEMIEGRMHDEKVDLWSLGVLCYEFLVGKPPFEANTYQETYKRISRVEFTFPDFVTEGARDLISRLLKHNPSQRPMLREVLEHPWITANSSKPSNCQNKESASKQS

BRAF = BRAF (Homo sapiens, UniProt P15056); assay: KINOMEscan; assay type: binding; conditions: read-out: % Inhibition AMBIT, BRAF
DMPK = DMPK (Homo sapiens, UniProt Q09013); assay: KINOMEscan; assay type: binding; conditions: read-out: % Inhibition AMBIT, DMPK
ERBB2 = ERBB2 (Homo sapiens, UniProt P04626); assay: KINOMEscan; assay type: binding; conditions: read-out: % Inhibition AMBIT, ERBB2
ERBB4 = ERBB4 (Homo sapiens, UniProt Q15303); assay: KINOMEscan; assay type: binding; conditions: read-out: % Inhibition AMBIT, ERBB4
GSK3A = GSK3A (Homo sapiens, UniProt P49840); assay: KINOMEscan; assay type: binding; conditions: read-out: % Inhibition AMBIT, GSK3A
Chain of GSK3A (P49840 whole entry): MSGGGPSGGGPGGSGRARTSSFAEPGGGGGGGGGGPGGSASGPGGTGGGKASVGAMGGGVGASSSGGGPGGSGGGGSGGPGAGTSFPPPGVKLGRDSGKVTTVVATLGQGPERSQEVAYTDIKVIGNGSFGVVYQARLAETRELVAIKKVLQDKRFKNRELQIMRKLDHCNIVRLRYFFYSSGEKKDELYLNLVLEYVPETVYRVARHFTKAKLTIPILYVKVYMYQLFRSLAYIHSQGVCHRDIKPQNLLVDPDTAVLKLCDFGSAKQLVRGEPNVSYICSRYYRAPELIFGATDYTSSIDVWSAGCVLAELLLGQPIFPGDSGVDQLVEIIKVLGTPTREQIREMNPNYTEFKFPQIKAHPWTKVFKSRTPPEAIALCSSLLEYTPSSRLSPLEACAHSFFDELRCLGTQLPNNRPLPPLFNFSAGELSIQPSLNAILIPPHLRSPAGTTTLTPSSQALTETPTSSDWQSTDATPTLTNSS

GSK3B = GSK3B (Homo sapiens, UniProt P49841); assay: KINOMEscan; assay type: binding; conditions: read-out: % Inhibition AMBIT, GSK3B
MAP3K5 (ASK1) = MAP3K5 (ASK1) (Homo sapiens, UniProt Q99683); assay: KINOMEscan; assay type: binding; conditions: read-out: % Inhibition AMBIT, MAP3K5 (ASK1)
MAPK/ERK2 = MAPK/ERK2 (Homo sapiens, UniProt P28482); assay: KINOMEscan; assay type: binding; conditions: read-out: % Inhibition AMBIT, MAPK/ERK2
Chain of MAPK/ERK2 (P28482 whole entry): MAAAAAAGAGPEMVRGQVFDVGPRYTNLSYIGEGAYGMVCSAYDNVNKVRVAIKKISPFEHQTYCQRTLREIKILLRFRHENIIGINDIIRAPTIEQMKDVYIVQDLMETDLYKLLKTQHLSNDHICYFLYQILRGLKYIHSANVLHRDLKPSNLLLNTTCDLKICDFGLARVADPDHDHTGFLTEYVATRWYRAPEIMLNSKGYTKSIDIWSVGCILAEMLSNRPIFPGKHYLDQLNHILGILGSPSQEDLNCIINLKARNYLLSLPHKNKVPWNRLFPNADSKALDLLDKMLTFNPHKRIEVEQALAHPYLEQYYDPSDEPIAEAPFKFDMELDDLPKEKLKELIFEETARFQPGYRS

PIM1 = PIM1 (Homo sapiens, UniProt P11309); assay: KINOMEscan; assay type: binding; conditions: read-out: % Inhibition AMBIT, PIM1
Chain of PIM1 (P11309 whole entry): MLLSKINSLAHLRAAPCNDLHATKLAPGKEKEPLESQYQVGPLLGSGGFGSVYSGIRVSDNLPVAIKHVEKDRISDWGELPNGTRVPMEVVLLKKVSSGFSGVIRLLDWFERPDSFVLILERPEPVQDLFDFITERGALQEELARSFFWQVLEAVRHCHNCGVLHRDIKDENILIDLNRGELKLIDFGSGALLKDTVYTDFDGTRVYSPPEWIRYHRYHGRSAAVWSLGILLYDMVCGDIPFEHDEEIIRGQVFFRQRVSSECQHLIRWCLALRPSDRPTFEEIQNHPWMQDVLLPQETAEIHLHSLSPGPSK

PIM2 = PIM2 (Homo sapiens, UniProt Q9P1W9); assay: KINOMEscan; assay type: binding; conditions: read-out: % Inhibition AMBIT, PIM2
PLK1 = PLK1 (Homo sapiens, UniProt P53350); assay: KINOMEscan; assay type: binding; conditions: read-out: % Inhibition AMBIT, PLK1
PLK3 = PLK3 (Homo sapiens, UniProt Q9H4B4); assay: KINOMEscan; assay type: binding; conditions: read-out: % Inhibition AMBIT, PLK3
RAF = RAF (Homo sapiens, UniProt P04049); assay: KINOMEscan; assay type: binding; conditions: read-out: % Inhibition AMBIT, RAF
RPS6KA6 (Kin. Dom.2) = RPS6KA6 (Kin. Dom.2) (Homo sapiens, UniProt Q9UK32); assay: KINOMEscan; assay type: binding; conditions: read-out: % Inhibition AMBIT, RPS6KA6 (Kin. Dom.2)
human iPSC-CMs [1] = assay: ATP depletion; assay type: cell-based; conditions: for depletion of ATP: 31 µM sunitinib; for TC50 based on dose–response data for ATP depletion: human iPSC-CMs, 24 h treatment; for attenuation of sunitinib-mediated ATP depletion: 3 h pretreatment with 1 or 2 mM, then 8 to 31 µM sunitinib for 24 h
human iPSC-CMs [2] = assay: LDH release in iCell cardiomyocytes; assay type: cell-based
human iPSC-CMs [3] = assay: Caspase 3/7 cleavage; assay type: cell-based; conditions: for maximal attenuation of caspase 3/7 cleavage: 23 µM sunitinib 24 h
human iPSC-CMs [4] = assay: GSH oxidation; assay type: cell-based
pACC-S79, pAMPK-T172 = assay: Western blot of AMPK/ACC signaling in iCell cardiomyocytes; assay type: cell-based, human; conditions: iPSC-CMs; for phosphorylation status of AMPKα-Thr172 and ACC-Ser79: 1 or 2 mM for 3 h
human iPSC-CMs [5] = assay: Microelectrode array; assay type: cell-based; conditions: MEA; for change of beat rate from baseline: up to 2 mM
RSK1/2/4 = assay: 10 µM AMBIT screen; assay type: binding
human iPSC-CMs [6] = assay: Cytotoxicity dose response; assay type: cell-based; conditions: for concentration without cytotoxicity (no ATP depletion or LDH release): 4 to 250 µM tested, 24 h
317 kinases = conditions: at 0.1 µM; ref Karaman et al., 2008; cited from earlier work
RSK1 = conditions: read-out: IC50 RSK1; kinase activity assay; ref Hasinoff et al., 2008; cited from earlier work
Nav1.5 channel = Nav1.5 channel (Homo sapiens, UniProt Q14524); assay: PatchXpress Nav1.5 channel assay in CHL-Nav1.5 cells; assay type: cell-based; conditions: read-out: IC50 of Nav1.5 channel inhibition
[7] = 23 µM sunitinib, 24 h, iPSC-CMs
[8] = 31 µM sunitinib, 24 h, iPSC-CMs

Chain of AMPK-alpha1 (Q13131 whole entry): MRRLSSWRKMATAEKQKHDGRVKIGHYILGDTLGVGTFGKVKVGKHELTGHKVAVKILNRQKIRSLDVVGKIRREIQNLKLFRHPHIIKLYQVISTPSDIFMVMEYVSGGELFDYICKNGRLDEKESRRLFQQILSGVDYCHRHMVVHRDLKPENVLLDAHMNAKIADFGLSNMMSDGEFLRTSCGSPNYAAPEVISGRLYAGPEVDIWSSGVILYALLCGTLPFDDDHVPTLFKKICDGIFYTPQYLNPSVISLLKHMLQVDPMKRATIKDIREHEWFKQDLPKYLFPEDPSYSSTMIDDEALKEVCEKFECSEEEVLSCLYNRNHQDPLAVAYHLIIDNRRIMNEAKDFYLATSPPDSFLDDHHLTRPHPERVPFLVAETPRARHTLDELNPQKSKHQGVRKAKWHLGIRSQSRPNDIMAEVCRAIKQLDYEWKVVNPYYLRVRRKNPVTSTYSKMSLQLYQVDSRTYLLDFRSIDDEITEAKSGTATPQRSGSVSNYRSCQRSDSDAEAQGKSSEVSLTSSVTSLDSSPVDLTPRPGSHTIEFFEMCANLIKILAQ

## CCN(CC)CCNC(=O)c1c(C)[nH]c(/C=C2\C(=O)Nc3ccc(F)cc32)c1C [sunitinib, Sunitinib]
AMPK-alpha1
  inhibition at 10 µM: 100%
AMPK-alpha2
  inhibition at 10 µM: 99%
AURORA B KINASE
  inhibition at 10 µM: 100%
AURORA C KINASE
  inhibition at 10 µM: 100%
CDK7
  inhibition at 10 µM: 100%
PDGFR-alpha
  inhibition at 10 µM: 100%
PDGFR-beta
  inhibition at 10 µM: 100%
PLK4
  inhibition at 10 µM: 100%
FLT1
  inhibition at 10 µM: 100%
FLT4
  inhibition at 10 µM: 100%
STK11
  inhibition at 10 µM: 100%
RPS6KA1 (Kin. Dom.1)
  inhibition at 10 µM: 100%
RPS6KA2 (Kin. Dom.1)
  inhibition at 10 µM: 100%
RPS6KA4 (Kin. Dom.1)
  inhibition at 10 µM: 100%
RPS6KA4 (Kin. Dom.2)
  inhibition at 10 µM: 99%
RPS6KA6 (Kin. Dom.1)
  inhibition at 10 µM: 97%
ROCK2
  inhibition at 10 µM: 97%
AKT3
  inhibition at 10 µM: < 50%
AURORA A KINASE
  inhibition at 10 µM: < 50%
BRAF
  inhibition at 10 µM: < 50%
DMPK
  inhibition at 10 µM: < 50%
ERBB2
  inhibition at 10 µM: < 50%
ERBB4
  inhibition at 10 µM: < 50%
GSK3A
  inhibition at 10 µM: < 50%
GSK3B
  inhibition at 10 µM: < 50%
MAP3K5 (ASK1)
  inhibition at 10 µM: < 50%
MAPK/ERK2
  inhibition at 10 µM: < 50%
PIM1
  inhibition at 10 µM: < 50%
PIM2
  inhibition at 10 µM: < 50%
PLK1
  inhibition at 10 µM: < 50%
PLK3
  inhibition at 10 µM: < 50%
RAF
  inhibition at 10 µM: < 50%
RPS6KA6 (Kin. Dom.2)
  inhibition at 10 µM: < 50%
Human iPSC-CMs [1]; [7]
  ATP depleted compared to vehicle: greater than 60%
Human iPSC-CMs [1]; 24 h, iPSC-CMs
  depletion of ATP: ~100%
Human iPSC-CMs [1]; by 4.5 h, iPSC-CMs (unpublished results)
  depletion of ATP: 80%
Human iPSC-CMs [1]
  TC50 based on dose–response data for ATP depletion: 16.7 µM
Human iPSC-CMs [2]; [7]
  increase in LDH release compared to vehicle: 300%
Human iPSC-CMs [2]; [8]
  release of LDH: ~100%
Human iPSC-CMs [3]; [8]
  cleavage of caspase 3/7: ~100%
Human iPSC-CMs [4]; [7]
  GSH oxidized compared to vehicle: 67%
Human iPSC-CMs [4]; [8]
  oxidation of GSH: ~100%
pACC-S79, pAMPK-T172; 15 µM for 2 h
  inhibition of phosphorylation of AMPK's downstream target ACC-Ser79: inhibited AMPK
pACC-S79, pAMPK-T172; 15.6 µM, 2 h
  phosphorylation status of ACC-S79: decreased the phosphorylation status of ACC-S79
Human iPSC-CMs [5]; serially increasing additions
  amplitude of the Na+-peak: dose-dependently reduced the amplitude of the Na^+-peak
RSK1/2/4
  inhibition of RSK1/2/4: 100%
Human iPSC-CMs [6]
  IC50 of cardiotoxicity (loss of cellular ATP, oxidized glutathione, apoptosis): low micromolar range
317 kinases
  number of kinases bound of the 317 kinases tested: 57
  share of the 317 kinases tested that were bound: 18%
RSK1
  IC50: […]

## NC(=O)c1ncn([C@@H]2O[C@H](CO)[C@@H](O)[C@H]2O)c1N [AICAR, aminoimidazole carboxamide ribonucleotide]
Human iPSC-CMs [1]
  attenuation of sunitinib-mediated ATP depletion: Neither AICAR (Fig. 3A) nor metformin (Fig. 3E) attenuated
Human iPSC-CMs [2]; 1 mM pretreatment 3 h, 23 or 31 µM sunitinib 24 h
  reduction of LDH release: 80%
Human iPSC-CMs [3]; 2 mM pretreatment 3 h
  maximal attenuation of caspase 3/7 cleavage: 108%
Human iPSC-CMs [4]; 1 mM pretreatment 3 h, 31 µM sunitinib 24 h
  attenuation of oxidized GSH: 14%
pACC-S79, pAMPK-T172
  phosphorylation status of AMPKα-Thr172 and ACC-Ser79: activated AMPK signaling
Human iPSC-CMs [5]
  change of beat rate from baseline: ≤ 1%

## CN(C)C(=N)N=C(N)N [metformin]
Human iPSC-CMs [1]
  attenuation of sunitinib-mediated ATP depletion: Neither AICAR (Fig. 3A) nor metformin (Fig. 3E) attenuated
Human iPSC-CMs [2]; 1 mM pretreatment 3 h, 23 µM sunitinib 24 h
  maximal attenuation of LDH release: 90%
Human iPSC-CMs [3]; 1 mM pretreatment 3 h
  maximal attenuation of caspase 3/7 cleavage: 107%
Human iPSC-CMs [4]; 2 mM pretreatment 3 h, 23 µM sunitinib 24 h
  reduction in oxidation of GSH: 35%
pACC-S79, pAMPK-T172
  phosphorylation status of AMPKα-Thr172 and ACC-Ser79: activated AMPK signaling
Human iPSC-CMs [5]
  change of beat rate from baseline: ≤ 1%

## COCCNCCCn1c(C(=O)CF)c(-c2ccc(C)cc2)c2c(N)ncnc21 [RSK FMK-MEA, fluoromethylketone methoxyethylamine]
Human iPSC-CMs [1]
  TC50 based on dose–response data for ATP depletion: 250 µM
Human iPSC-CMs [5]; 15 min at each concentration
  concentration with irregular (arrhythmic) beats: 3000 nM
Human iPSC-CMs [5]; serially increasing additions
  amplitude of the Na+-peak: dose-dependent reduction in the amplitude of the Na^+-peak
  fPDc (field-potential duration corrected by beat rate, Fridericia): dose-dependent prolongation of fPDc
Nav1.5 channel
  IC50: 56.8 µM
Human iPSC-CMs [6]
  concentration without cytotoxicity (no ATP depletion or LDH release): up to 62 µM
Human iPSC-CMs [6]; listed as RSK-FMK-MEA
  concentration without cytotoxicity (no ATP depletion or LDH release): below 250 µM
